Measurements as given in publication PMC4145847 (ChemMedChem, 2014).
Like-named read-outs stand apart in the source and are kept apart here. Values belong to the compound of their own block, whether it stands above or below them.

Key:
[1] = tested on: DU-145 human prostate cancer cells; assay: Antiproliferative assay; format: cell-based; settings: for GI50: read-out: GI50 DU-145
Bovine brain tubulin [2] = assay: Inhibition of [3H]colchicine binding to tubulin; settings: 1.0 μM tubulin, 5.0 μM [3H]colchicine, mean ±SD
Bovine brain tubulin [3] = assay: Inhibition of tubulin assembly; format: biochemical; settings: read-out: Tubulin assembly IC50; 10 μM tubulin; mean ±SD of at least two determinations
[4] = tested on: MDA MB-231 human breast cancer cells; assay: Antiproliferative assay; format: cell-based; settings: for GI50: read-out: GI50 MDA MB-231
Renal SN12-C = assay: NCI-60 cell line assay, Renal SN12-C; format: cell-based; settings: Homo sapiens, SN12C, read-out: GI50 Renal SN12-C
Colon HCT-116 = assay: NCI-60 cell line assay, Colon HCT-116; format: cell-based; settings: Homo sapiens, HCT-116, read-out: GI50 Colon HCT-116
Lung HOP-62 = assay: NCI-60 cell line assay, Lung HOP-62; format: cell-based; settings: Homo sapiens, HOP-62, read-out: GI50 Lung HOP-62
Melanoma UACC-62 = assay: NCI-60 cell line assay, Melanoma UACC-62; format: cell-based; settings: Homo sapiens, UACC-62, read-out: GI50 Melanoma UACC-62
[5] = tested on: various cancer lines in sealed polyvinylidine fluoride fibres implanted i.p. or s.c.; assay: NCI hollow fibre assay; settings: dosed i.p. at 75 mg/kg, mice
NCI 60-cell line panel = assay: NCI-60 cell line assay, mean over all 60 cell lines; format: cell-based; settings: mean concentration that caused 50% growth inhibition in all 60 cell lines
Ovarian OVCAR-3 = assay: NCI-60 cell line assay, Ovarian OVCAR-3; format: cell-based; settings: Homo sapiens, OVCAR-3, read-out: GI50 Ovarian OVCAR-3
[6] = mean of three determinations, 96 h

SMILES: CCc1cc2c(cc1OS(N)(=O)=O)CCN(Cc1cc(Br)c(OC)c(OC)c1)C2 [Compound 15, 2-(3-Bromo-4,5-dimethoxybenzyl)-7-ethyl-6-sulfamoyloxy-1,2,3,4-tetrahydroisoquinoline]
GI50 ([1]; Homo sapiens, DU-145, 96 h): 20 nM
Colchicine binding Inhibition at 5 μM inhibitor (Bovine brain tubulin [2]): 78±2%
IC50 (Bovine brain tubulin [3]): 1800 ± 40 nM
GI50 ([4]; Homo sapiens, MDA-MB-231, 96 h): 30 nM

SMILES: COc1cc2c(cc1OS(N)(=O)=O)CCN(Cc1cc(Br)c(OC)c(OC)c1)C2 [Compound 12f, 2-(3-Bromo-4,5-dimethoxybenzyl)-7-methoxy-6-sulfamoyloxy-1,2,3,4-tetrahydroisoquinoline]
GI50 (Renal SN12-C): 55 nM
GI50 (Colon HCT-116): 38 nM
GI50 (Lung HOP-62): 80 nM
Colchicine binding Inhibition at 5 μM inhibitor (Bovine brain tubulin [2]): 45 ±0.6%
GI50 (Melanoma UACC-62): 28 nM
Hollow fibre assay score for i.p. fibres [5]: 16
Hollow fibre assay score for s.c. fibres [5]: 18
Hollow fibre assay score (maximum 96) ([5]; total score): 34
IC50 (Bovine brain tubulin [3]): 2400 ± 400 nM
MGM (NCI 60-cell line panel): 0.044 µM
GI50 (Ovarian OVCAR-3): 18 nM

SMILES: COc1cc2c(cc1OS(N)(=O)=O)CC(C)N(Cc1cc(Br)c(OC)c(OC)c1)C2 (racemic) [Compound 12j, (±)-2-(3-Bromo-4,5-dimethoxybenzyl)-7-methoxy-3-methyl-6-sulfamoyloxy-1,2,3,4-tetrahydroisoquinoline]
GI50 [1, 6]: 50 nM
Colchicine binding Inhibition at 5 μM inhibitor (Bovine brain tubulin [2]): 50 ±4%
IC50 (Bovine brain tubulin [3]): 2400 ± 200 nM
GI50 [4, 6]: 40 nM

SMILES: COc1cc2c(cc1O)CC(C)N(Cc1cc(Br)c(OC)c(OC)c1)C2 (racemic) [Compound 11j, (±)-2-(3-Bromo-4,5-dimethoxybenzyl)-6-hydroxy-7-methoxy-3-methyl-1,2,3,4-tetrahydroisoquinoline]
GI50 [1, 6]: 400 nM
GI50 [4, 6]: 300 nM

SMILES: COc1cc2c(cc1OC(C)=O)CCN(Cc1cc(OC)c(OC)c(OC)c1)C2 [Compound 17b, 6-Acetoxy-7-methoxy-2-(3,4,5-trimethoxybenzyl)-1,2,3,4-tetrahydroisoquinoline]
GI50 ([1]; Homo sapiens, DU-145, 96 h): 407 nM
GI50 ([4]; Homo sapiens, MDA-MB-231, 96 h): 340 nM

SMILES: COc1cc2c(cc1OS(C)(=O)=O)CCN(Cc1cc(OC)c(OC)c(OC)c1)C2 [Compound 17c, 7-Methoxy-6-methanesulfonyloxy-2-(3,4,5-trimethoxybenzyl)-1,2,3,4-tetrahydroisoquinoline]
GI50 ([1]; Homo sapiens, DU-145, 96 h): 220 nM
GI50 ([4]; Homo sapiens, MDA-MB-231, 96 h): 188 nM

SMILES: COc1cc2c(cc1OC)CN(Cc1cc(OC)c(OC)c(OC)c1)CC2 [Compound 17a, 6,7-Dimethoxy-2-(3,4,5-trimethoxybenzyl)-1,2,3,4-tetrahydroisoquinoline]
GI50 ([1]; Homo sapiens, DU-145, 96 h): > 100000 nM
GI50 ([4]; Homo sapiens, MDA-MB-231, 96 h): 77600 nM
Fold less active than 3a ([4]; MDA MB-231): 120 fold

SMILES: CCc1cc2c(cc1O)CCN(Cc1cc(Br)c(OC)c(OC)c1)C2 [Compound 14, 2-(3-Bromo-4,5-dimethoxybenzyl)-7-ethyl-6-hydroxy-1,2,3,4-tetrahydroisoquinoline]
GI50 ([1]; Homo sapiens, DU-145, 96 h): 1200 nM
GI50 ([4]; Homo sapiens, MDA-MB-231, 96 h): 400 nM

Second part, led by results:

GI50 ([1]; Homo sapiens, DU-145, 96 h): 86000 nM
GI50 ([4]; Homo sapiens, MDA-MB-231, 96 h): 74000 nM
SMILES: COc1cc(CN2CCc3cc(O)ccc3C2)cc(Cl)c1OC [Compound 20e, 2-(3-Chloro-4,5-dimethoxybenzyl)-6-hydroxy-1,2,3,4-tetrahydroisoquinoline]
Fold less active than 20b ([1]; DU-145 and MDA MB-231): 100- to 600 fold

GI50 ([1]; Homo sapiens, DU-145, 96 h): 35000 nM
GI50 ([4]; Homo sapiens, MDA-MB-231, 96 h): 25000 nM
SMILES: COc1cc(CN2CCc3cc(O)ccc3C2)cc(Br)c1OC [Compound 20f, 2-(3-Bromo-4,5-dimethoxybenzyl)-6-hydroxy-1,2,3,4-tetrahydroisoquinoline]

GI50 ([1]; Homo sapiens, DU-145, 96 h): > 100000 nM
GI50 ([4]; Homo sapiens, MDA-MB-231, 96 h): > 100000 nM
SMILES: COc1cc(CN2CCc3cc(OS(N)(=O)=O)ccc3C2)cc(OC)c1OC [Compound 20d, 6-Sulfamoyloxy-2-(3,4,5-trimethoxybenzyl)-1,2,3,4-tetrahydroisoquinoline]

GI50 ([1]; Homo sapiens, DU-145, 96 h): > 100000 nM
GI50 ([4]; Homo sapiens, MDA-MB-231, 96 h): > 100000 nM
SMILES: CCOc1cc(CN2CCc3cc(O)ccc3C2)cc(OCC)c1OCC [Compound 20h, 6-Hydroxy-2-(3,4,5-triethoxybenzyl)-1,2,3,4-tetrahydroisoquinoline]
